# Results from patent publication US9951064B2, “Azaindazole compounds as inhibitors of T790M containing EGFR mutants” (Genentech, Inc., priority 2013, dated 2018).
# Where two headings read alike, the source gives them in different places.
# Tests used:
# EGFR T790M L858R = target: T1, EGFR T790M L858R (Homo sapiens, UniProt P00533, L858R/T790M); experiment: EGFR T790M L858R biochemical assay (Caliper mobility shift); conditions: 5 μM ATP; apparent Ki (Morrison fit) converted by Cheng-Prusoff, Km of ATP 1.3 μM
# T1 construct: purchased Life Technologies PV4879
# Experimental: The exemplified compounds described herein were tested according to the assay below. The enzyme data reported in Tables 4-5 is generally a representative of multiple experiments.
# Reactions proceed for 30 minutes at room temperature (22° C.) and are terminated with 80 mM 2,2′,2″,2′″-(ethane-1,2-diyldinitrilo)tetraacetic acid (EDTA). Product is detected using the Caliper mobility shift detection method where product and substrate are electrophoretically separated and measured.
# [1] = target: T2, phosphor-EGFR in H1975(L585R/T790M) mutant EGFR expressing cells (Homo sapiens, UniProt P00533, L858R/T790M); experiment: H1975 pEGFR MSD cellular assay; assay type: cell-based; conditions: NCI-H1975 cells, serum starved, 1 hour compound incubation, pEGFR Tyr1068 MSD; read-out: HI975 pEGFR EC50
# T2 construct: host or cells: NCI-H1975
# Experimental: H1975 pEGFR MSD Cellular Assays
# These assays are intended for determining cellular. […] (Meso Scale Discovery Catalog# N31CB-1).
# NCI-H1975 (ATCC Catalog# CRL-5908) cells are maintained in medium containing RPMI 1640, 10% FBS, 4 mM L-Glutamine, 1% Penicillin-Streptomycin, and 4.5 g/L Glucose. All cell culture reagents were purchased from Invitrogen/Gibco. Cells are cultured at 37° C. at 5% CO2 and split as recommended by ATCC.
# Cell Plating and Serum Starvation:
# H1975 cells are harvested and plated into sterile cell culture treated 384 well plates (Greiner catalog #781091) at a density of 30,000 cells/well in 50 ul culture medium and placed in a 37° C. at 5% CO2 incubator for six hours. After six hours, culture medium is aspirated and replaced with serum-free culture medium. Cells are then incubated with the serum-free medium overnight at 37° C. and 5% CO2.
# The following day, test compounds are serially diluted in dimethyl sulfoxide (DMSO) and added to cells in serum free medium (final DMSO concentration 0.5%). Assay plates are then incubated for 1 hour at 37° C. and 5% CO2. Following 1 hour of compound incubation cells are then lysed and processed as per the MSD pEGFR assay kit protocol. Cell lysates are added to assay plates pre-coated with antibodies against phosphorylated EGFR. Phosphorylated EGFR in samples are allowed to bind to the capture antibodies overnight at 4° C. The detection antibody (anti-total EGFR, labeled with an electrochemiluminescent SULFO-TAG) is added to the bound lysate and incubated for 1 hour at room temperature. The MSD Read Buffer is added such that when a voltage is applied to the plate electrodes, the labels bound to the electrode surface emit light. The MSD Sector Instrument measures the intensity of the light, and quantitatively measures the amount of phosphorylated-EGFR in the sample. Percent inhibition of EGFR phosphorylation by varying concentrations of test compounds is calculated relative to untreated controls. EC50 values are calculated using the 4 parameter logistic nonlinear regression dose-response model.
# [2] = system: H1975 (EGFR T790M/L858R) cell proliferation; experiment: H1975 proliferation assay (Cell Titer-Glo); assay type: cell-based; conditions: NCI-H1975 cells, 72 hour incubation
# Experimental: H1975 Proliferation Assays
# All cell culture reagents were purchased from Invitrogen/Gibco. Cells are cultured at 37° C. at 5% CO2 and split as recommended by ATCC.
# [3] = Homo sapiens, NCI-H1975, 72 h, read-out: H1975 antiproliferative EC50
# T1 sequence (P00533 25-1210 T790M/L858R): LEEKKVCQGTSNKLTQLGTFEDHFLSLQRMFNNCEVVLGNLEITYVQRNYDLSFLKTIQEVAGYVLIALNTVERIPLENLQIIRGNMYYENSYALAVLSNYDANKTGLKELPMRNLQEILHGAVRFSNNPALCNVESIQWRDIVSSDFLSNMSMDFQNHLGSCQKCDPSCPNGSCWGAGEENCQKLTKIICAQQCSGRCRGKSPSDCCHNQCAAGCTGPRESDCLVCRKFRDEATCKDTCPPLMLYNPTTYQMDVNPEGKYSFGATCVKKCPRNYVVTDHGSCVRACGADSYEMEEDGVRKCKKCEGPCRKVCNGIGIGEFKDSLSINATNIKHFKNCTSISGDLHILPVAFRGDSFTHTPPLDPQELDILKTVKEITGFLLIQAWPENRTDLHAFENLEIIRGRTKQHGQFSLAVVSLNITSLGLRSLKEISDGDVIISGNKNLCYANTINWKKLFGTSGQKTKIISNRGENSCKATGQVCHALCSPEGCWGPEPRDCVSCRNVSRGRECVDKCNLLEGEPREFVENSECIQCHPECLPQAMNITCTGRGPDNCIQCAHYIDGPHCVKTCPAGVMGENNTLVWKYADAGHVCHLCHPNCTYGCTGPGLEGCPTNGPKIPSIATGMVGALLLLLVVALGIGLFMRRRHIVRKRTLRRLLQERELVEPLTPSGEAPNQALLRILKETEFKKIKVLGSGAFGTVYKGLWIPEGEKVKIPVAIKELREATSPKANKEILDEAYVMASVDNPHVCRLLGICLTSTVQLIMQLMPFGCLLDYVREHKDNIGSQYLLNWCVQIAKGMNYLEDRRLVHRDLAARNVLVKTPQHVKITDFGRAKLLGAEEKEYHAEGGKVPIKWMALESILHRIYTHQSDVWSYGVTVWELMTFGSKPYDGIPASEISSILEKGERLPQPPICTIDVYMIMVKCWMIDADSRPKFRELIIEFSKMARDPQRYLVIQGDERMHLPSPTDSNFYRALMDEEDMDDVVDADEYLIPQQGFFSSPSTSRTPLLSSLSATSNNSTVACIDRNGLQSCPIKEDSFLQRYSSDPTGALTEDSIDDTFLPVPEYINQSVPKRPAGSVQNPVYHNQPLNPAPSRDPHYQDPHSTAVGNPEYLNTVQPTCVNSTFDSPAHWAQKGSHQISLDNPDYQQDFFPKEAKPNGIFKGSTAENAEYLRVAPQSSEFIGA
# T2 sequence (P00533 25-1210 T790M/L858R): as above
structure (smiles),measurement,setting,value
"CCC(C)n1nc(N2CC(C(C)(C)O)C2)c2cnc(Nc3ccnc(N4CCC(O)C(C)(C)C4)n3)cc21 (mixture of isomers) [Example 12, 1-(4-((1-(sec-Butyl)-3-(3-(2-hydroxypropan-2-yl)azetidin-1-yl)-1H-pyrazolo[4,3-c]pyridin-6-yl)amino)pyrimidin-2-yl)-3,3-dimethylpiperidin-4-ol]",Ki,EGFR T790M L858R,2.2 nM
same,EC50,[1],30.2 nM
same,EC50,[2]; [3],288 nM
"CCC(C)n1nc(N2CC3(COC3)C2)c2cnc(Nc3ccnc(-c4cnn(S(=O)(=O)C5CC5)c4)n3)cc21 (racemic) [Example 14, 1-(sec-Butyl)-N-(2-(1-(cyclopropylsulfonyl)-1H-pyrazol-4-yl)pyrimidin-4-yl)-3-(2-oxa-6-azaspiro[3.3]heptan-6-yl)-1H-pyrazolo[4,3-c]pyridin-6-amine]",Ki,EGFR T790M L858R,1 nM
same,EC50,[1],19.3 nM
same,EC50,[2]; [3],216 nM
"CC(C)n1nc(N2CCOCC2)c2cnc(Nc3ccnc(N4CCC(O)C(F)C4)n3)cc21 (racemic) [Example 20, (±)-cis-3-Fluoro-1-[4-(1-isopropyl-3-morpholin-4-yl-1H-pyrazolo[4,3-c]pyridin-6-ylamino)pyrimidin-2-yl]piperidin-4-ol]",Ki,EGFR T790M L858R,2.5 nM
same,EC50,[1],135 nM
same,EC50,[2]; [3],1080 nM
"CCC(C)n1nc(N2CC(C(C)(C)O)C2)c2cnc(Nc3ccnc(-c4cnn(S(=O)(=O)C5CC5)c4)n3)cc21 (single isomer, unassigned) [Example 13, enantiomer 1, 2-(1-(1-(sec-Butyl)-6-((2-(1-(cyclopropylsulfonyl)-1H-pyrazol-4-yl)pyrimidin-4-yl)amino)-1H-pyrazolo[4,3-c]pyridin-3-yl)azetidin-3-yl)propan-2-ol]",EC50,[2]; [3],361 nM
"CCC(C)n1nc(N2CC(C(C)(C)O)C2)c2cnc(Nc3ccnc(-c4cnn(S(=O)(=O)C5CC5)c4)n3)cc21 (single isomer, unassigned) [Example 13, enantiomer 2, 2-(1-(1-(sec-Butyl)-6-((2-(1-(cyclopropylsulfonyl)-1H-pyrazol-4-yl)pyrimidin-4-yl)amino)-1H-pyrazolo[4,3-c]pyridin-3-yl)azetidin-3-yl)propan-2-ol]",EC50,"[2]; listed as 13, enantiomer 2, read-out: H1975 antiproliferative EC50",633 nM
"CCC(C)n1nc(N2CCOCC2)c2cnc(Nc3ccnc(-c4cnn(S(=O)(=O)C5CC5)c4)n3)cc21 (single isomer, unassigned) [Example 27, enantiomer 1, 1-(sec-Butyl)-N-(2-(1-(cyclopropylsulfonyl)-1H-pyrazol-4-yl)pyrimidin-4-yl)-3-morpholino-1H-pyrazolo[4,3-c]pyridin-6-amine]",EC50,[2]; [3],610 nM
"CCC(C)n1nc(N2CCOCC2)c2cnc(Nc3ccnc(-c4cnn(S(=O)(=O)C5CC5)c4)n3)cc21 (single isomer, unassigned) [Example 27, enantiomer 2, 1-(sec-Butyl)-N-(2-(1-(cyclopropylsulfonyl)-1H-pyrazol-4-yl)pyrimidin-4-yl)-3-morpholino-1H-pyrazolo[4,3-c]pyridin-6-amine]",EC50,"[2]; listed as 27, enantiomer 2, read-out: H1975 antiproliferative EC50",1140 nM
"CC(C)n1nc(F)c2cnc(Nc3ccnc(-c4cnn(S(=O)(=O)C5CC5)c4)n3)cc21 [Example 7, N-(2-(1-(Cyclopropylsulfonyl)-1H-pyrazol-4-yl)pyrimidin-4-yl)-3-fluoro-1-isopropyl-1H-pyrazolo[4,3-c]pyridin-6-amine]",Ki,EGFR T790M L858R,298 nM
same,EC50,[2]; [3],> 10000 nM
"COC1CCN(c2nccc(Nc3cc4c(cn3)c(C(N)=O)nn4C(C)C)n2)CC1 [Example 11, 1-Isopropyl-6-((2-(4-methoxypiperidin-1-yl)pyrimidin-4-yl)amino)-1H-pyrazolo[4,3-c]pyridine-3-carboxamide]",Ki,EGFR T790M L858R,29.1 nM
"CCC(C)n1nc(N2CC(N)C(F)(F)C2)c2cnc(Nc3ccnc(N4CCC(C)(O)CC4)n3)cc21 (stereo not drawn) [Example 184, 1-(4-(3-(4-Amino-3,3-difluoropyrrolidin-1-yl)-1-sec-butyl-1H-pyrazolo[4,3-c]pyridin-6-ylamino)pyrimidin-2-yl)-4-methylpiperidin-4-ol]",EC50,[1],94.9 nM
same,EC50,[2]; [3],761 nM
"CCC(C)n1nc(N2CC[C@H](O)C2=O)c2cnc(Nc3ccnc(-c4cnn(S(=O)(=O)C5CC5)c4)n3)cc21 (stereo partly drawn) [Example 185, (3S)-(1-sec-Butyl-6-(2-(1-(cyclopropylsulfonyl)-1H-pyrazol-4-yl)pyrimidin-4-ylamino)-1H-pyrazolo[4,3-c]pyridin-3-yl)-3-hydroxypyrrolidin-2-one]",EC50,[1],85.6 nM
same,EC50,[2]; [3],696 nM
"CCC(C)n1nc(N2CC[C@@H](O)C2=O)c2cnc(Nc3ccnc(-c4cnn(S(=O)(=O)C5CC5)c4)n3)cc21 (stereo partly drawn) [Example 186, (3R)-1-(1-sec-Butyl-6-(2-(1-(cyclopropylsulfonyl)-1H-pyrazol-4-yl)pyrimidin-4-ylamino)-1H-pyrazolo[4,3-c]pyridin-3-yl)-3-hydroxypyrrolidin-2-one]",EC50,[1],74.9 nM
same,EC50,[2]; [3],586 nM
"CCC(C)n1nc(N2CCN(C(=O)[C@H](C)O)CC2)c2cnc(Nc3ccnc(-c4cnn(S(=O)(=O)C5CC5)c4)n3)cc21 (stereo partly drawn) [Example 187, (2S)-1-(4-(1-sec-Butyl-6-(2-(1-(cyclopropylsulfonyl)-1H-pyrazol-4-yl)pyrimidin-4-ylamino)-1H-pyrazolo[4,3-c]pyridin-3-yl)piperazin-1-yl)-2-hydroxypropan-1-one]",EC50,[1],75.5 nM
same,EC50,[2]; [3],813 nM
"CCC(C)n1nc(N2CCN(C(=O)[C@@H](C)O)CC2)c2cnc(Nc3ccnc(-c4cnn(S(=O)(=O)C5CC5)c4)n3)cc21 (stereo partly drawn) [Example 188, (2R)-1-(4-(1-sec-Butyl-6-(2-(1-(cyclopropylsulfonyl)-1H-pyrazol-4-yl)pyrimidin-4-ylamino)-1H-pyrazolo[4,3-c]pyridin-3-yl)piperazin-1-yl)-2-hydroxypropan-1-one]",EC50,[1],64.3 nM
same,EC50,[2]; [3],1090 nM
"CCC(C)n1nc(N2C[C@@H](CO)NC2=O)c2cnc(Nc3ccnc(-c4cnn(S(=O)(=O)C5CC5)c4)n3)cc21 (stereo partly drawn) [Example 189, (4S)-1-(1-sec-Butyl-6-(2-(1-(cyclopropylsulfonyl)-1H-pyrazol-4-yl)pyrimidin-4-ylamino)-1H-pyrazolo[4,3-c]pyridin-3-yl)-4-(hydroxymethyl)imidazolidin-2-one]",EC50,[1],474 nM
same,EC50,[2]; [3],5590 nM
"CCC(C)n1nc(N2CC(C(C)O)C2)c2cnc(Nc3ccnc(-c4cnn(S(=O)(=O)C5CC5)c4)n3)cc21 (stereo not drawn) [Example 190, 1-(1-(1-sec-Butyl-6-(2-(1-(cyclopropylsulfonyl)-1H-pyrazol-4-yl)pyrimidin-4-ylamino)-1H-pyrazolo[4,3-c]pyridin-3-yl)azetidin-3-yl)ethanol]",EC50,[1],44.6 nM
same,EC50,[2]; [3],537 nM
"CC(C)n1nc(N2C[C@@H](O)[C@@H](O)C2)c2cnc(Nc3ccnc(N4CCC(C)(O)CC4)n3)cc21 [Example 191, (±)-1-(6-(2-(4-Hydroxy-4-methylpiperidin-1-yl)pyrimidin-4-ylamino)-1-isopropyl-1H-pyrazolo[4,3-c]pyridin-3-yl)pyrrolidine-cis-3,4-diol]",EC50,[1],532 nM
same,EC50,[2]; [3],> 10000 nM
"CC(C)n1nc(N2C[C@H](O)[C@@H](O)C2)c2cnc(Nc3ccnc(N4CCC(C)(O)CC4)n3)cc21 [Example 192, (3S,4S)-1-(6-(2-(4-Hydroxy-4-methylpiperidin-1-yl)pyrimidin-4-ylamino)-1-isopropyl-1H-pyrazolo[4,3-c]pyridin-3-yl)pyrrolidine-3,4-diol]",EC50,[2]; [3],> 10000 nM
